The record followed here is ChEMBL document CHEMBL1149437, “1-Alkyl-benzotriazole-5-carboxylic acids are highly selective agonists of the human orphan G-protein-coupled receptor GPR109b” (J Med Chem, 2006).

Each structure is given as a SMILES string. The source made the active and inactive calls. The calls are words filed in the database; no cut-off is given here. Some results are limits rather than exact numbers.

For assay [1], the target named is Hydroxycarboxylic acid receptor 3 (Homo sapiens, UniProt P49019). Put plainly: Agonistic activity at GPR109b by cAMP whole cell assay. The assay is classed as functional.
Assay [2] deals with Hydroxycarboxylic acid receptor 2 (Mus musculus) (UniProt Q9EP66). Put plainly: Activity against GPR109a upto 100 uM. The assay is classed as functional.
The target of assay [3] is Adrenergic receptor beta (Homo sapiens) (UniProt P08588+P07550+P13945). Put plainly: Activity against beta adrenergic receptor. Format: protein assay.

Chain of Hydroxycarboxylic acid receptor 3 (P49019 whole entry): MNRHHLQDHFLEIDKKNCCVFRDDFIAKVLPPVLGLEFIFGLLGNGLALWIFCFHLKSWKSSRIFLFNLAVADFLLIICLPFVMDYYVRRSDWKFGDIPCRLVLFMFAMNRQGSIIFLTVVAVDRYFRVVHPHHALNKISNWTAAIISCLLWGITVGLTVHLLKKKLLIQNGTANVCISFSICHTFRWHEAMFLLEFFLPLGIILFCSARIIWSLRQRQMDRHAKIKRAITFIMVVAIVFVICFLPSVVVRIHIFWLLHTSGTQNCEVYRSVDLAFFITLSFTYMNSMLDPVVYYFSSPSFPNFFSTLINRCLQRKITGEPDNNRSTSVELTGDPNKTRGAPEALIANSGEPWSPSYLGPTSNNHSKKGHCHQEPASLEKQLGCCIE
Chain of Hydroxycarboxylic acid receptor 2 (Mus musculus) (Q9EP66 whole entry): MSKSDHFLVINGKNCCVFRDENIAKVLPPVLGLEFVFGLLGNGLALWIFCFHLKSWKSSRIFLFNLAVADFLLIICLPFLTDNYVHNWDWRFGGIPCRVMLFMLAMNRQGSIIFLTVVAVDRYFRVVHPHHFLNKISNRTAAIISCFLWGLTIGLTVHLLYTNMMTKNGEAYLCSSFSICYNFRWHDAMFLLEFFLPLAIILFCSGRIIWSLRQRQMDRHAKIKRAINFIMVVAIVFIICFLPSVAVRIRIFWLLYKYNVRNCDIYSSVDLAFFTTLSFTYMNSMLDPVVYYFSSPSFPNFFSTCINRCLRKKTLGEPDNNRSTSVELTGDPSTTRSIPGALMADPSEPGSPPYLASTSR

Compound `CCC(CC)n1nnc2cc(C(=O)O)ccc21` showed a 50% effective concentration (EC50) in assay [1] of 3.02 µM. Moreover, the outcome in assay [2] was inactive.
The corresponding values for `CCCn1nnc2cc(C(=O)O)ccc21` are 7.41 µM and “inactive”.
The corresponding values for `CCSCCn1nnc2cc(C(=O)O)ccc21` are 0.302 µM and “inactive”.
For `CCOCCn1nnc2cc(C(=O)O)ccc21`, in that order: 0.257 µM and “inactive”.
As to `O=C(O)c1ccc2c(c1)nnn2C(c1ccccc1)c1ccccc1`, in assay [1], the EC50 was above 10 µM. The result in assay [2] was inactive.
Take `C=CCn1nnc2cc(C(=O)O)ccc21`: the “Log EC50” value in assay [1] was “inactive”. Further, the result in assay [2] was inactive.
For `Cc1nc2cc(C(=O)O)ccc2n1C(C)C`, in assay [1], the “Log EC50” value is “inactive”. Further, the outcome in assay [2] was inactive.
Turning to `COCCn1nnc2cc(C(=O)O)ccc21`, the EC50 in assay [1] is 0.316 µM. Further, the outcome in assay [2] was inactive.
For `O=C(O)c1ccc2c(c1)nnn2C1CC1`, in that order: 2.34 µM and “inactive”.
For `O=C(O)c1ccc2c(c1)nnn2C1CCCCC1`, in that order: 5.89 µM and “inactive”.
For the compound `COc1cccc(Cn2nnc3cc(C(=O)O)ccc32)c1`, in assay [1], the response was half-maximal at 5.01 µM (EC50). In assay [2], the result was inactive.
For `O=C(O)c1ccc2c(c1)nnn2Cc1cc(F)cc(F)c1`, in that order: above 10 µM and “inactive”.
As for `O=C(O)c1ccc2c(c1)nnn2CC1CC1`, the “Log EC50” value in assay [1] was “inactive”. For the same compound, in assay [2], the outcome was inactive.
Take `COCC(C)n1nnc2cc(C(=O)O)ccc21` (centres undefined): it took 0.2 µM to reach a half-maximal effect in assay [1] (EC50). The result in assay [2] was inactive.
Consider `O=C(O)c1ccc2[nH]nnc2c1`, for which, in assay [1], the “Log EC50” value is “inactive”. Further, the result in assay [2] was inactive.
`CC(C)n1nnc2cc(-c3nn[nH]n3)ccc21`: in assay [1], the “Log EC50” value is “inactive”. Further, in assay [2], the result was inactive.
`O=C(O)c1ccc2c(c1)nnn2C1CCC1`: the response in assay [1] was half-maximal at 3.09 µM (EC50). Moreover, the outcome in assay [2] was inactive.
The corresponding values for `Cn1nnc2cc(C(=O)O)ccc21` are 2 µM and “inactive”.
For `O=C(O)c1ccc2c(c1)nnn2C1CCCC1`, in that order: 1.1 µM and “inactive”.
The corresponding values for `CCCCn1nnc2cc(C(=O)O)ccc21` are 0.692 µM and “inactive”.
For `CCCCCn1nnc2cc(C(=O)O)ccc21`, the EC50 in assay [1] is 0.288 µM. In assay [2], the outcome was inactive.
Take `O=C(O)c1ccc2c(c1)nnn2-c1ccccc1`: in assay [1], the “Log EC50” value is “inactive”. Moreover, the result in assay [2] was inactive.
`CCC(C)n1nnc2cc(C(=O)O)ccc21` (centres undefined) gave a concentration for a half-maximal effect (EC50) in assay [1] of 0.331 µM. Moreover, the outcome in assay [2] was inactive.
With `CC(C)(C)n1nnc2cc(C(=O)O)ccc21`, in assay [1], the response was half-maximal at 0.257 µM (EC50). The outcome in assay [2] was inactive.
In turn, `O=C(O)c1ccc2c(c1)nnn2Cc1ccccc1` gave an EC50 in assay [1] of 9.12 µM. The result in assay [2] was inactive.
For the compound `CC(C)n1nnc2cc(C(=O)O)ccc21`, the result in assay [3] and in assay [2] was inactive. In addition, the EC50 in assay [1] is 0.398 µM.
For `COc1ccc(Cn2nnc3cc(C(=O)O)ccc32)cc1`, the “Log EC50” value in assay [1] is “inactive”. In addition, the outcome in assay [2] was inactive.
The compound `CCn1nnc2cc(C(=O)O)ccc21` showed a concentration giving a half-maximal response (EC50) in assay [1] of 0.891 µM. Besides, the result in assay [2] was inactive.
The corresponding values for `CC(C)n1cnc2cc(C(=O)O)ccc21` are 3.39 µM and “inactive”.
